# Measurements published in patent US6831199B1, “Pyrimidine compounds and derivatives thereof” (G. D. Searle & Co., priority 1995, dated 2004).
# Structures can show the parent of a compound that is named as a salt.
# How the values were obtained:
# [1] = molecular target: T1, Human fibrinogen receptor (αIIbβ3) (Homo sapiens, UniProt P05106+P08514); experiment: Purified IIb/IIIa receptor assay (solid phase receptor assay, competition with biotinylated vitronectin); assay type: binding; settings: read-out: IIb/IIIa IC50
# T1 construct: Human fibrinogen receptor (αIIbβ3) was purified from outdated platelets; from tissue; host or cells: outdated human platelets
# In short: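 Competition format: 1 nM biotinylated vitronectin plus test compound (highest 1.0×10^−4 M), 2 h at room temperature on wells coated with platelet-derived αIIbβ3. Buffer was TBS containing 1.0 mM Ca, Mg, Mn, pH 7.4. HRP anti-biotin readout at 450 nm; normalized to maximum binding, four-parameter curve fit.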
# [2] = test system: platelet rich plasma; experiment: Human platelet rich plasma assay (ADP induced platelet aggregation); assay type: cell-based; settings: Homo sapiens, Platelet, ADP induced platelet aggregation in human platelet rich plasma; read-out: Human PRP
# Procedure: Human Platelet Rich Plasma Assays
# Healthy aspirin free donors were selected from a pool of volunteers. The harvesting of platelet rich plasma and subsequent ADP induced platelet aggregation assays were performed as described in Zucker, M. B., “Platelet Aggregation Measured by the Photometric Method”, Methods in Enzymology 169(1989):117-133. Standard venipuncture techniques using a butterfly allowed the withdrawal of 45 mL of whole blood into a 60 mL syringe containing 5 mL of 3.8% trisodium citrate. Following thorough mixing in the syringe, the anti-coagulated whole blood was transferred to a 50 mL conical polyethylene tube. The blood was centrifuged at room temperature for 12 minutes at 200×g to sediment non-platelet cells. Platelet rich plasma was removed to a polyethylene tube and stored at room temperature until used. Platelet poor plasma was obtained from a second centrifugation of the remaining blood at 2000×g for 15 minutes. Platelet counts are typically 300,000 to 500,000 per microliter. Platelet rich plasma (0.45 mL) was aliquoted into siliconized cuvettes and stirred (1100 rpm) at 37° C. for 1 minute prior to adding 50 uL of pre-diluted test compound. After 1 minute of mixing, aggregation was initiated by the addition of 50 uL of 200 uM ADP. Aggregation was recorded for 3 minutes in a Payton dual channel aggregometer (Payton Scientific, Buffalo, N.Y.). The percent inhibition of maximal response (saline control) for a series of test compound dilutions was used to determine a dose response curve.
# [3] = molecular target: T2, Human vitronectin receptor (αvβ3) (Homo sapiens, UniProt P05106+P06756); experiment: Vitronectin adhesion assay (solid phase receptor assay, competition with biotinylated vitronectin); assay type: binding; settings: read-out: AvB3 IC50
# T2 construct: Human vitronectin receptor (αvβ3) was purified from human placenta; from tissue; host or cells: human placenta
# In short: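 Purified human αvβ3 coated overnight at 4 °C in TBS with 1.0 mM Ca++, Mg++, Mn++, pH 7.4; compounds (top final 1.0×10^−4 M) competed with 1 nM biotinylated vitronectin for 2 h at room temperature. Bound ligand detected by HRP anti-biotin/OPD at A450; values normalized to no-competitor controls, four-parameter curve fit.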
IC50 [1],IC50 [2],IC50 [3],SMILES
2690 nM,> 200000 nM,47 nM,"O=C(O)CC(NC(=O)CNC(=O)c1cccc(NC(=O)NCCc2ccccc2)c1)c1cccnc1 (stereo not drawn) [Example 130, β-[[2-[[[3-[[[(2-phenylethyl)amino]carbonyl]amino]phenyl]carbonyl]amino]acetyl]amino]pyridine-3-propanoic acid, trifluoroacetate salt]"
583 nM,> 200000 nM,3.36 nM,"N=C(N)Nc1cccc(C(=O)NCC(=O)NC(CC(=O)O)c2cc(Br)ccc2O)c1 (racemic) [Example 228, (±)β-[[2-[[[3-[(aminoiminomethyl)amino]phenyl]carbonyl]amino]acetyl]amino]-5-bromo-2-hydroxybenzenepropanoic acid, trifluoroacetate salt, monohydrate]"
9460 nM,> 200000 nM,68.9 nM,"O=C(O)CCNC(=O)Nc1cccc(C(=O)NCC(=O)NC(CC(=O)O)c2cccnc2)c1 (stereo not drawn) [Example 129, β-[[2-[[[3-[[[(2-carboxyethyl)amino]carbonyl]aminophenyl]carbonyl]amino]acetyl]amino]pyridine-3-propanoic acid, trifluoroacetate salt]"
5830 nM,> 200000 nM,55.3 nM,"N#C/N=C(/NCc1ccccn1)Nc1cccc(C(=O)NCC(=O)NC(CC(=O)O)c2ccccc2)c1 (stereo not drawn) [Example 144, β-[[2-[[[3-[[(cyanoimino)[2-pyridinylmethyl)amino]methyl]amino]phenyl]carbonyl]amino]acetyl]amino]benzenepropanoic acid, bis(trifluoroacetate)salt]"
70.3 nM,> 20000 nM,0.49 nM,"O=C(O)CC(NC(=O)CNC(=O)c1cccc(NC2=NCCN2)c1)c1cc(Cl)cc(Cl)c1 (racemic) [Example 191, (±)β-[[2-[[[3-[(4,5-dihydro-1H-imidazol-2-yl)amino]phenyl]carbonyl]amino]acetyl]amino]-3,5-dichlorobenzenepropanoic acid, trifluoroacetate salt]"

# Second part, the molecule before the results:
SMILES,IC50 [1],IC50 [2],IC50 [3]
"CCOC(=O)CC(NC(=O)CNC(=O)c1cccc(NC(=N)N)c1)c1cccnc1 (racemic) [Example 1, (±)ethyl β-[[2-[[[3-[(aminoiminomethyl)amino]phenyl]carbonyl]amino]acetyl]amino]pyridine-3-propanoate, bis(trifluoroacetate)salt]",8350 nM,> 200000 nM,76.9 nM
"O=C(O)CCNC(=O)CNC(=O)c1cccc(NC(=O)NCc2ccccc2)c1 [Example 103, 3-[[2-[[[3-[[[(phenylmethyl)amino]carbonyl]amino]phenyl]carbonyl]amino]acetyl]amino]propanoic acid]",19100 nM,> 20000 nM,16.6 nM
"C#C[C@H](CC(=O)O)NC(=O)CNC(=O)c1cccc(NC(=N)N2CCCC2)c1 [Example 34, βS-[[2-[[[3-[[imino(1-pyrrolidinyl)methyl]amino]phenyl]carbonyl]amino]acetyl]amino]-4-pentynoic acid, trifluoroacetate salt]",269 nM,> 200000 nM,94.3 nM
"C#C[C@H](CC(=O)O)NC(=O)CNC(=O)c1cccc(NC(=O)NCc2ccccc2)c1 [Example 44, 3S-[[2-[[[3-[[[(phenylmethyl)amino]carbonyl]amino]phenyl]carbonyl]amino]acetyl]amino]-4-pentynoic acid]",998 nM,> 20000 nM,0.33 nM
"O=C(O)CC(NC(=O)CNC(=O)c1cc(NC2=NCCCCC2)cc(NC2=NCCCCC2)c1)c1cccnc1 (racemic) [Example 22, (±)β-[[2-[[[3,5-bis[(3,4,5,6-tetrahydro-2H-azepin-7-yl)amino]phenyl]carbonyl]amino]acetyl]amino]pyridine-3-propanoic acid, tris(trifluoroacetate)salt]",280 nM,> 200000 nM,1.37 nM
